Test results taken from US8592581B2, “Trisubstituted purine derivatives” (Cyclacel Limited, priority 2007, dated 2013).

Legend:
CDK2/cyclin E = CDK2/cyclin E (Homo sapiens (Human), UniProt P24941); experiment: In-vitro recombinant kinase assay CDK2/cyclin E; format: biochemical; conditions: Table 2; average of duplicate points; read-out: CDK2/Cyclin E Average IC50
Experimental: (§1) To evaluate the in-vitro kinase potency of the compounds, they were screened against CDK 2 and CDK9. Kinase assays were performed in 96-well plates using recombinant CDK/cyclins generated at Cyclacel. Ltd Dundee, UK. CDK2 and CDK9 assays were performed in a total volume of 25 μl in assay buffer (25 mM b-glycerophosphate, 20 mM MOPS, 5 mM EGTA, 1 mM DTT and 1 mM NaVO3, pH 7.4), into which were added 2-4 μg of active enzyme with appropriate substrates (purified histone H1 for CDK2/cyclin E, and CDK2/cyclin A, biotinyl-Ahx-(YSPTSPS)4 for CDK9/cyclin T1). […] CDK2 reactions were stopped by addition of 25 μl of 75 mM phosphoric acid, followed by filtration through P81 filterplates (Whatman Polyfiltronics, Kent, UK). For CDK9, the reaction was stopped by addition of 25 μl of 75 mM phosphoric acid, then 5 μl of 10 mg/ml avidin was added to each well and further incubated for 2 min followed by filtration as per CDK2 assay. After washing 3 times with 75 mM orthophosphoric acid, plates were dried, scintillant added and incorporated radioactivity measured in a scintillation counter (TopCount, Packard Instruments, Pangbourne, Berks, UK). Compounds for kinase assay were made up as 10 mM stocks in DMSO and diluted into 10% DMSO in assay buffer.
as §1

CYP2D6 = CYP2D6 (Homo sapiens (Human), UniProt P10635); experiment: CYP2D6 inhibition, human liver microsomes, dextromethorphan; format: in vitro ADME
Experimental: Six test compound concentrations (0.05, 0.25, 0.5, 2.5, 5, 25 μM in DMSO; final DMSO concentration=0.25%) were incubated with human liver microsomes (0.5 mg/mL) and NADPH (1 mM) in the presence of the probe substrate dextromethorphan (5 μM) for 30 min at 37° C. The selective CYP2D6 inhibitor, quinidine, was screened alongside the test compounds as a positive control.
For the CYP1A incubations, the reactions were terminated by the addition of methanol, and the formation of the metabolite, resorufin, was monitored by fluorescence (excitation wavelength=535 nm, emission wavelength=595 nm). For the CYP2C9, CYP2C19, CYP2D6, and CYP3A4 incubations, the reactions were terminated by the addition of methanol containing internal standard. The samples were then centrifuged, and the supernatants were combined, for the simultaneous analysis of 4-hydroxytolbutamide, 4-hydroxymephenyloin, dextrorphan, and 1-hydroxymidazolam plus internal standard by LC-MS/MS using generic LC-MS/MS conditions. Formic acid in deionised water (final concentration=0.1%) was added to the final sample prior to analysis.

H292 = experiment: Alamar blue cytotoxicity assay H292; format: cell-based; conditions: Homo sapiens, NCI-H292; 72 hours; read-out: cellular cytotoxicity IC50 H292
Experimental: In order to determine the cellular potency of the compounds, the cytotoxicity of each compound was determined against a range of cell lines. Standard cytotoxicity methods were performed as follows: cells were seeded in 96-well plates appropriately for their doubling time (2-5000 cells per well) in RPMI or DMEM media containing 10% FCS and incubated overnight at 37° C., 5% CO2. The media was removed and 100 μl fresh media containing increasing concentrations of appropriate compound was added and the cells incubated for 72 hours at 37° C., 5% CO2. A 10% stock of alamar blue (Roche, Lewes, United Kingdom) was prepared in medium and 100 μl added to the cells which were incubated for 2 hours. Absorbance was measured on the Wallac Victor 2 1420 multi-label counter at 544-595 nm.

Sequence of CYP2D6 (P10635 whole entry): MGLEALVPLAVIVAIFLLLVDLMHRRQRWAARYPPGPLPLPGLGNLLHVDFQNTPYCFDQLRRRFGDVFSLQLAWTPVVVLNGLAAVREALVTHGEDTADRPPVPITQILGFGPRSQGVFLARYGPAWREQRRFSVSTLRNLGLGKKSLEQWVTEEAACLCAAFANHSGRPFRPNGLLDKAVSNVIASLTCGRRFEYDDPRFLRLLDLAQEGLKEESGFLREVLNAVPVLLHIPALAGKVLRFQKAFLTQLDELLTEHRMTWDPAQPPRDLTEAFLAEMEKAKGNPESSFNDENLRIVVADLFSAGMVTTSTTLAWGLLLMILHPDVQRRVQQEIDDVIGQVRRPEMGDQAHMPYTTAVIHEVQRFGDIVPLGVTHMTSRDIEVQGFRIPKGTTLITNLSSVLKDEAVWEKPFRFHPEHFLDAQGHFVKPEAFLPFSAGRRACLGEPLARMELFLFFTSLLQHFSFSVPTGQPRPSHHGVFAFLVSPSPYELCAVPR

SMILES: CC[C@H](Nc1nc(NCc2cnc(C)cc2C)c2ncn(C(C)C)c2n1)[C@@H](C)O [Compound [1]]
- IC50 (CDK2/cyclin E): 20 nM
- IC50 (CYP2D6): > 25 µM
- IC50 (H292): 370 nM
